Here are results for three compounds from patent US3987177A, “Vincaminic acid esters” (Synthelabo, priority 1974, dated 1976).

One series relates to mice of the strain CD1. Put plainly: Acute toxicity (50% lethal dose) in mice. Conditions: for toxicity compared to vincamine, lower by a factor, intraperitoneal: intraperitoneally; for toxicity compared to vincamine, lower by a factor, intraperitoneal / toxicity compared to vincamine, lower by a factor, oral: factor vs vincamine; for toxicity compared to vincamine, lower by a factor, oral: orally. It counts as in vivo.

The subject of another series is Mice of the CD1 strain. Put plainly: Anoxia test on mice under low (oxygen) pressure conditions. It counts as in vivo. The following applies: for Protective activity in the anoxia test under reduced pressure conditions, MAD (mean active dose, increases the survival time by 100%): CD1 mice, intraperitoneally 10 minutes before the test, 190 mm of mercury (5.25% oxygen), expressed as the base; for anti-anoxia activity compared to vincamine: mice, in words. As for the experimental part:
Mice of the CD1 strain are kept in an atmosphere depleted in oxygen, by producing a partial vacuum (190 mm of mercury, corresponding to 5.25% of oxygen).
The survival time of the animals is noted. This time is increased by agents capable of assisting tissue oxygenation and in particular cerebal oxygenation. The compounds studied are administered in several doses intraperitoneally 10 minutes before the test. The percentage increases in the survival time relative to the values obtained with comparison animals are calculated. The mean active dose (MAD), the dose which increases the survival time by 100%, is determined graphically.

Series [1] in a line: Acute toxicity (50% lethal dose) in mice. It is filed as in vivo. Conditions: mouse, in vivo.
The nature of another series: Water solubility. It counts as physicochemical. Conditions: methylsulphonic acid salt.
In another series the test system is femoral artery of dogs. The following applies: in words; no test or source given; cited from earlier work.
Setting [2] is: ip, CD1 mice, intraperitoneal, mortality recorded for 7 days, read-out: Acute toxicity LD50, intraperitoneal.
Where [3] appears, read: mice, oral, read-out: Acute toxicity LD50, oral.

Counter-ions that a name gives are not always drawn. Like-named read-outs stand apart in the source and are kept apart here.

For the compound `CC[C@@]12C=C(C(=O)OC3CC(C)CC(C)(C)C3)n3c4c(c5ccccc53)CCN(CCC1)[C@H]42.Cl` (some centres unmarked) [Example 1, 3,3,5-Trimethylcyclohexyl apovincaminate], the “Acute toxicity LD50, intraperitoneal” value with mice of the strain CD1 (CD1 mice, intraperitoneal, mortality recorded for 7 days) is 430 mg/kg. Besides, in the series with mice of the strain CD1 (mice), the “toxicity compared to vincamine, lower by a factor, intraperitoneal” value is on record as 2 and the “toxicity compared to vincamine, lower by a factor, oral” value is recorded as “about 5”. Further, the “Acute toxicity LD50, oral” value in the series with mice of the strain CD1 (mice, oral, 10080 min) was 2100 mg/kg. In addition, in the series with Mice of the CD1 strain, the “Protective activity in the anoxia test under reduced pressure conditions, MAD (mean active dose, increases the survival time by 100%)” value was 5.5 mg/kg and the “anti-anoxia activity compared to vincamine” value is given as “markedly greater than that of vincamine”.
In the case of `CCC12C=C(C(=O)OC3CC(C)CC(C)(C)C3)n3c4c(c5ccccc53)CCN(CCC1)C42` (centres unmarked) [Example 3, methylsulphonic acid salt of 3,3,5-trimethylcyclohexyl apovincaminate], the LD50 (usually the dose expected to kill half of the subjects tested) at 168 h in series [1] (setting [2]) was 440 mg/kg. Further, the LD50 at 168 h in series [1] (setting [3]) was determined as 2800 mg/kg. Besides, in the series with mice of the strain CD1 (mice), the “toxicity compared to vincamine, lower by a factor, intraperitoneal” value was 2 and the “toxicity compared to vincamine, lower by a factor, oral” value was “about 5”. Further, in the series with Mice of the CD1 strain, the “Protective activity in the anoxia test under reduced pressure conditions, MAD (mean active dose, increases the survival time by 100%)” value is listed as 5 mg/kg and the “anti-anoxia activity compared to vincamine” value is given as “markedly greater than that of vincamine”. Moreover, the “water solubility (in words)” value in “Water solubility” was “water-soluble”.
`CC[C@]12CCCN3CCc4c(n(c5ccccc45)[C@@](O)(C(=O)OC)C1)[C@@H]32` [Vincamine, reference compound]: the values for the LD50 at 168 h in series [1] (setting [2]) and in series [1] (setting [3]) were 215 mg/kg and 460 mg/kg, respectively. For the same compound, in the series with Mice of the CD1 strain, the “Protective activity in the anoxia test under reduced pressure conditions, MAD (mean active dose, increases the survival time by 100%)” value turned out to be 8 mg/kg. Also, the “vasodilating activity compared to papaverine (known compounds)” value with femoral artery of dogs was “at most equal to that of papaverine”.
